Data: patent publication US6437138B1, “3-pyridyloxymethyl heterocyclic ether compounds useful in controlling chemical synaptic transmission” (priority 1996, dated 2002)
Counter-ions that a name gives are not always drawn.

Row | SMILES | melting point
1 | Nc1cccc(-c2cncc(OC[C@@H]3CCN3)c2)c1 (as salt: salt) [Example 65, 5-(3-Aminophenyl)-3-(2-(S)-azetidinylmethoxy)pyridine Hidrochloride] | 85 to 87 °C
2 | COC(=O)C=Cc1cncc(OC[C@@H]2CCCN2C)c1 (as salt: hydrochloride) [Example 16, 5-(2-(Methoxycarbonyl)ethenyl-3-(1-methyl-2-(S)-pyrrolidinylmethoxy)pyridine Dihydrochloride] | 128 to 130 °C
3 | CN1CCC[C@H]1COc1cnc(Cl)c(C=Cc2ccncc2)c1 (as salt: hydrochloride) [Example 50, 5-(2-(4-Pyridinyl)ethenyl)-6-chloro-3-(1-methyl-(2-(S)-pyrrolidinylmethoxy)pyridine Dihydrochloride] | 218 to 222 °C
4 | CN1CCC[C@H]1COc1cncc(CCc2ccncc2)c1 (as salt: hydrochloride) [Example 29, 5-(2-(4-Pyridinnyl)ethyl)-3-(1-methyl-2-(S)-pyrrolidinnylmethoxy)pyridine Trihydrochloride] | 148 to 150 °C
5 | CCCCCCC#Cc1cncc(OC[C@H]2CCCN2C)c1.Cl.Cl [Example 145, 3-(1-Methyl-2-(R)-pyrrolidinylmethoxy)-5-(1-octynyl)pyridine Dihydrochloride] | 102 to 105 °C
6 | CCCCCCC#Cc1cncc(OC[C@@H]2CCN2)c1 (as salt: hydrochloride) [Example 63, 5-Octynyl-3-(2-(S)-azetidinylmethoxy)pyridine Dihydrochloride] | 88 to 90 °C
7 | Clc1ncc(OC[C@H]2CCCN2)cc1-c1ccccc1 (as salt: salt) [Example 70] | 178 to 180 °C
8 | CN1CC[C@H]1COc1cncc(C=CC=CC(C)(C)C)c1 (as salt: hydrochloride) [Example 166, 5-(5,5-Dimethyl-1,3-hexadiene)-3-(1-methyl-2-(S)-azetidinylmethoxy)pyridine Dihydrochloride] | 143 to 145 °C
9 | Cl.Cl.Clc1ccc(-c2cncc(OC[C@@H]3CCCN3)c2)cc1 [Example 20, 5-(4-chlorophenyl)-3-(2-(S)-pyrrolidinylmethoxy)pyridine Dihydrochloride] | 180 to 182 °C
10 | CCCCCCC#Cc1cc(OC[C@@H]2CCCN2C)cnc1Cl.Cl.Cl [Example 146, 6-Chloro-3-(1-methyl-2-(S)-pyrrolidinylmethoxy)-5-(1-octynyl)pyridine Dihydrochloride] | 223 to 225 °C
11 | CN1CCC[C@@H]1COc1cnc(Cl)c(CCc2ccncc2)c1.Cl.Cl.Cl [Example 83, 5-(2-(4-Pyridinyl)ethyl)-6-chloro-3-(1-methyl-2-(R)-pyrrolidinylmethoxy)pyridine Trihydrochloride] | 236 to 238 °C
12 | CC(=O)c1cc(OC[C@@H]2CCCN2)cnc1Cl.Cl.Cl [Example 32, 5-Acetyl-6-chloro-3-(2-(S)-pyrrolidinylmethoxy)pyridine Dihydrochloride] | 173 to 176 °C
13 | CN1CCC[C@@H]1COc1cncc(-c2ccc(Cl)cc2)c1.Cl.Cl [Example 141, 5-(4-Chlorophenyl)-3-(1-methyl-2-(R)-pyrrolidinylmethoxy)pyridine Dihydrochloride] | 223 to 225 °C
14 | CN1CCC[C@@H]1COc1cnc(Cl)c(C=CC=CC(C)(C)C)c1.Cl.Cl [Example 78, 5-(5,5-Dimethyl-1,3-hexadienyl)-6-chloro-3-(1-methyl-2-(R)-pyrrolidinylmethoxy)pyridine Dihydrochloride] | 194 °C (dec.)
15 | CN1CCC[C@H]1COc1cncc(-c2cccs2)c1 (as salt: hydrochloride) [Example 6, 5-(2-Thienyyl)-3-(1-methyl-2-(S)-pyrrolidinylmethoxy)pyridine Dihydrochloride] | 201 to 203 °C
16 | CCCCCCC#Cc1cc(OC[C@@H]2CCCN2)cnc1Cl.Cl.Cl [Example 140, 6-Chloro-5-(1-octynyl)-3-(2-(S)-pyrrolidinylmethoxy)pyridine Dihydrochloride] | 133 to 135 °C
17 | CC(C)(C)C=CC=Cc1cc(OC[C@@H]2CCCN2)cnc1Cl (as salt: hydrochloride) [Example 148, 6-Chloro-5-(5,5dimethyl-1,3-hexadienyl)-3-(2-(S)-pyrrilidinylmethoxy)pyridine Dihydrochloride] | 206 to 208 °C
18 | CC(C)(C)C=CC=Cc1cc(OC[C@H]2CCCN2)cnc1Cl.Cl.Cl [Example 77, 5-(5,5-Dimethyl-1,3-hexadienyl)-6-chloro-3-(2-(R)-pyrrolidinylmethoxy)pyridine Dihydrochloride] | 190 to 192 °C
19 | CN1CCC[C@@H]1COc1cnc(Cl)c(C=Cc2ccncc2)c1 (as salt: hydrochloride) [Example 82, 5-(2-(4-Pyridinnyl)ethenyl)-6-chloro-3-(1-methyl-2-(R)-pyrrolidinylmethoxy)pyridine Dihydrochloride] | 220 to 222 °C (dec.)
20 | CN1CC[C@H]1COc1cnc(Cl)c(-c2ccccc2)c1 (as salt: salt) [Example 68, 5-Phenyl-6-chloro-3-(1-methyl-2-(S)-azetidinylmethoxy)pyridine Hidrochloride] | 187 to 188 °C
21 | Clc1ncc(OC[C@@H]2CCN2)cc1-c1ccccc1 (as salt: salt) [Example 67, 5-Phenyl-6-chloro-3-(2-(S)-azetidinylmethoxy)pyridine Hidrochloride] | 148 to 150 °C
22 | CC(C)(C)C=CC=Cc1cncc(OC[C@@H]2CCN2)c1 (as salt: hydrochloride) [Example 163, 3-(2-(S)-Azetidinylmethoxy)-5-(5,5-dimethyl-1,3-hexadiene)pyridine Dihydrochloride] | 142 to 144 °C
23 | Clc1ncc(OC[C@@H]2CCCN2)cc1-c1cccs1 (as salt: hydrochloride) [Example 152, 6-Chloro-3-(2-(S)-pyrrolidinolmethoxy)-5-(2-thienyl)pyridine Dihydrochloride] | 208 to 210 °C
24 | CN1CCC[C@H]1COc1cnc(Cl)c(-c2ccc(Cl)cc2)c1.Cl.Cl [Example 151, 6-Chloro-5-(4-chlorophenyl)-3-(1-methyl-2-(S)-pyrrolidinylmethoxy)pyridine Dihydrochloride] | 183 to 185 °C
25 | CN1CCC[C@H]1COc1cncc(-c2cc(C(F)(F)F)cc(C(F)(F)F)c2)c1 (as salt: hydrochloride) [Example 37, 5-(3,5-bis(Trifluoromehyl)phenyl)-3-(1-methyl-2-(S)-pyrrolidinylmethoxy)pyridine Dihydrochloride] | 68 to 70 °C
26 | CCCCCCC#Cc1cc(OC[C@H]2CCCN2C)cnc1Cl.Cl.Cl [Example 80, 5-(1-Octynyl)-6-chloro-3-(1-methyl-2-(R)-pyrrolidinylmethoxy)pyridine Dihydrochloride] | 114 to 116 °C (dec.)

The next lines start with the values.

Row | melting point | SMILES
27 | 102 to 104 °C | C=Cc1ccc(OC[C@@H]2CCN2)cn1.Cl.Cl [Example 201, 3-(2-(S)-Azetidinylmethoxy)-6-ethenylpyridine Dihydrochloride]
28 | 173 to 175 °C | CN1CC[C@@H]1COc1cnc(Cl)c(-c2ccccc2)c1.Cl [Example 189, 6-Chloro-3-(1-methyl-2-(R)-azetidinylmethoxy)-5-phenylpyridine Hydrochloride]
29 | 150 to 152 °C | C=CCc1cc(OC[C@@H]2CCCN2C)cnc1Cl.Cl [Example 184, 5-Allyl-6-chloro-3-(1-methyl-2-(S)-pyrrolidinylmethoxy)pyridine Hydrochloride]
30 | 230 °C (dec.) | Cl.Clc1ncc(OC[C@@H]2CCCN2)cc1-c1cncnc1 [Example 169, 6-Chloro-5-(5-pyrimidinyl)-3-(2-(S)-pyrrolidinylmethoxy)pyridine Hydrochloride]
31 | 155 to 157 °C | C#Cc1cc(OC[C@H]2CCN2)cnc1Cl.Cl [Example 190, 3-(2-(R)-Azetidinylmethoxy)-6-chloro-5-ethynylpyridine Hydrochloride]
32 | 168 to 170 °C | C=Cc1ncc(OC[C@@H]2CCCN2)cc1C.Cl [Example 187, 6-Ethenyl-5-methyl-3-(2-(S)-pyrrolidinylmethoxy)pyridine Hydrochloride]
33 | 144 °C (dec.) | Cl.Cl.Clc1ncc(OC[C@@H]2CCN2)cc1-c1cncnc1 [Example 172, 3-(2-(S)-Azetidinylmethoxy)-6-chloro-5-(5-pyrimidinyl)pyridine Dihydrochloride]
34 | 50 °C (dec.) | C=Cc1ncc(OC[C@@H]2CCCN2C)cc1C.Cl [Example 188, 6-Ethenyl-5-methyl-3-(1-methyl-2-(S)-pyrrolidinylmethoxy)pyridine Hydrochloride]
35 | 140 to 143 °C | C=Cc1cc(OC[C@@H]2CCN2C)cnc1C (as salt: salt) [Example 196, 5-Ethenyl-6-methyl-3-(1-methyl-2-(S)-azetidinylmethoxy)pyridine]
36 | 92 to 94 °C | CC(C)(C)C=CC=Cc1cncc(OC[C@@H]2CCCN2)c1.Cl.Cl [Example 160, 5-(5,5-Dimethyl-1,3-hexadienyl)3-(2-(S)-pyrrolidinylmethoxy)pyridine Dihydrochloride]
37 | 143 to 145 °C | Cl.Clc1ncc(OC[C@H]2CCN2)cc1-c1ccccc1 [Example 186, 3-(2-(R)-Azetidinylmethoxy)-6-chloro-5-phenylpyridine Hydrochloride]
38 | 132 to 134 °C | CN1CC[C@H]1COc1cncc(OCc2ccccc2)c1.Cl [Example 200, 5-Benzyloxy-3-(1-methyl-2-(S)-azetidinylmethoxy)pyridine Hydrochloride]
39 | 90 °C (dec.) | C#Cc1cc(OC[C@@H]2CCN2)cnc1Cl.Cl [Example 175, 3-(2-(S)-Azetidinylmethoxy)-6-chloro-5-ethynylpyridine Hydrochloride]
40 | 173 to 175 °C | C=Cc1cc(OC[C@H]2CCCN2C)cnc1Cl.Cl [Example 168, 6-Chloro-5-ethenyl-3-(1-methyl-2-(R)-pyrrolidinylmethoxy)pyridine Hydrochloride]
41 | 182 to 184 °C | COCCOc1cncc(OC[C@@H]2CCCN2)c1.Cl.Cl [Example 197, 5-Methoxyethoxy-3-(2-(S)-pyrrolidinylmethoxy)pyridine Dihydrochloride]
